Source: PubChem BioAssay (NCI)
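Five concentrations, 48 hours, 96-well plates. The concentration for full growth arrest is given as TGI.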

How the values were obtained:
Test in all cases: DTP human tumour cell line panel, 48 h
786-0 renal = tested on: 786-0 renal
A549 NSCLC = tested on: A549 NSCLC
ACHN renal = tested on: ACHN renal
CAKI-1 renal = tested on: CAKI-1 renal
CCRF-CEM leukemia = tested on: CCRF-CEM leukemia
COLO 205 colon = tested on: COLO 205 colon
DLD-1 colon = tested on: DLD-1 colon
DMS 114 small cell lung = tested on: DMS 114 small cell lung
DMS 273 small cell lung = tested on: DMS 273 small cell lung
EKVX NSCLC = tested on: EKVX NSCLC
HCC-2998 colon = tested on: HCC-2998 colon
HCT-116 colon = tested on: HCT-116 colon
HCT-15 colon = tested on: HCT-15 colon
HL-60(TB) leukemia = tested on: HL-60(TB) leukemia
HOP-18 NSCLC = tested on: HOP-18 NSCLC
HOP-62 NSCLC = tested on: HOP-62 NSCLC
HOP-92 NSCLC = tested on: HOP-92 NSCLC
HT29 colon = tested on: HT29 colon
IGROV1 ovarian = tested on: IGROV1 ovarian
K-562 leukemia = tested on: K-562 leukemia
KM12 colon = tested on: KM12 colon
KM20L2 colon = tested on: KM20L2 colon
LOX IMVI melanoma = tested on: LOX IMVI melanoma
LXFL 529 NSCLC = tested on: LXFL 529 NSCLC
M14 melanoma = tested on: M14 melanoma
M19-MEL melanoma = tested on: M19-MEL melanoma
MALME-3M melanoma = tested on: MALME-3M melanoma
MOLT-4 leukemia = tested on: MOLT-4 leukemia
NCI-H226 lung = tested on: NCI-H226 lung
NCI-H23 lung = tested on: NCI-H23 lung
NCI-H460 lung = tested on: NCI-H460 lung
NCI-H522 lung = tested on: NCI-H522 lung
OVCAR-3 ovarian = tested on: OVCAR-3 ovarian
OVCAR-4 ovarian = tested on: OVCAR-4 ovarian
OVCAR-5 ovarian = tested on: OVCAR-5 ovarian
OVCAR-8 ovarian = tested on: OVCAR-8 ovarian
RPMI-8226 leukemia = tested on: RPMI-8226 leukemia
RXF 393 renal = tested on: RXF 393 renal
SF-268 CNS = tested on: SF-268 CNS
SF-295 CNS = tested on: SF-295 CNS
SF-539 CNS = tested on: SF-539 CNS
SK-MEL-28 melanoma = tested on: SK-MEL-28 melanoma
SK-MEL-5 melanoma = tested on: SK-MEL-5 melanoma
SK-OV-3 ovarian = tested on: SK-OV-3 ovarian
SN12C renal = tested on: SN12C renal
SNB-19 CNS = tested on: SNB-19 CNS
SNB-75 CNS = tested on: SNB-75 CNS
SNB-78 CNS = tested on: SNB-78 CNS
SR leukemia = tested on: SR leukemia
SW-620 colon = tested on: SW-620 colon
TK-10 renal = tested on: TK-10 renal
U251 CNS = tested on: U251 CNS
UACC-257 melanoma = tested on: UACC-257 melanoma
UACC-62 melanoma = tested on: UACC-62 melanoma
UO-31 renal = tested on: UO-31 renal
XF 498 CNS = tested on: XF 498 CNS
A498 renal = tested on: A498 renal
RXF-631 renal = tested on: RXF-631 renal
SK-MEL-2 melanoma = tested on: SK-MEL-2 melanoma

Measured: TGI

C=CCC1C(=O)CC2(C)CC(=O)C(CC=C)C12C (stereo not drawn)
> 100 µM: 786-0 renal | A549 NSCLC | ACHN renal | CAKI-1 renal | CCRF-CEM leukemia | COLO 205 colon | DLD-1 colon | DMS 114 small cell lung | DMS 273 small cell lung | EKVX NSCLC | HCC-2998 colon | HCT-116 colon | HCT-15 colon | HL-60(TB) leukemia | HOP-18 NSCLC | HOP-62 NSCLC | HOP-92 NSCLC | HT29 colon | IGROV1 ovarian | K-562 leukemia | KM12 colon | KM20L2 colon | LOX IMVI melanoma | LXFL 529 NSCLC | M14 melanoma | M19-MEL melanoma | MALME-3M melanoma | MOLT-4 leukemia | NCI-H226 lung | NCI-H23 lung | NCI-H460 lung | NCI-H522 lung | OVCAR-3 ovarian | OVCAR-4 ovarian | OVCAR-5 ovarian | OVCAR-8 ovarian | RPMI-8226 leukemia | RXF 393 renal | SF-268 CNS | SF-295 CNS | SF-539 CNS | SK-MEL-28 melanoma | SK-MEL-5 melanoma | SK-OV-3 ovarian | SN12C renal | SNB-19 CNS | SNB-75 CNS | SNB-78 CNS | SR leukemia | SW-620 colon | TK-10 renal | U251 CNS | UACC-257 melanoma | UACC-62 melanoma | UO-31 renal | XF 498 CNS

Cc1cccc(C)c1NC(=O)C(=O)Nn1c(NN)nc2ccccc2c1=O
> 100 µM: 786-0 renal | A498 renal | A549 NSCLC | ACHN renal | CAKI-1 renal | CCRF-CEM leukemia | COLO 205 colon | DMS 114 small cell lung | DMS 273 small cell lung | EKVX NSCLC | HCC-2998 colon | HCT-116 colon | HCT-15 colon | HL-60(TB) leukemia | HOP-18 NSCLC | HOP-62 NSCLC | HOP-92 NSCLC | HT29 colon | IGROV1 ovarian | K-562 leukemia | KM12 colon | KM20L2 colon | LOX IMVI melanoma | LXFL 529 NSCLC | M14 melanoma | M19-MEL melanoma | MALME-3M melanoma | MOLT-4 leukemia | NCI-H226 lung | NCI-H23 lung | NCI-H460 lung | NCI-H522 lung | OVCAR-3 ovarian | OVCAR-4 ovarian | OVCAR-5 ovarian | OVCAR-8 ovarian | RPMI-8226 leukemia | RXF 393 renal | RXF-631 renal | SF-268 CNS | SF-295 CNS | SF-539 CNS | SK-MEL-2 melanoma | SK-MEL-28 melanoma | SK-MEL-5 melanoma | SK-OV-3 ovarian | SN12C renal | SNB-19 CNS | SNB-75 CNS | SNB-78 CNS | SR leukemia | SW-620 colon | TK-10 renal | U251 CNS | UACC-257 melanoma | UACC-62 melanoma | UO-31 renal
